Assay results: ChEMBL document CHEMBL1138462 (J Med Chem, 2009)
Activity calls are given as the source filed them. The rule behind the calls is not given here.

Columns and labels:
[1] = biological target: T1, Cannabinoid receptor 1 (Homo sapiens, UniProt P21554); type: functional, cell-based, CHO-K1
Description: Antagonist activity at human CB1 receptor expressed in CHOK1 cells assessed as inhibition of CP-55940-induced response after 10 mins by GTPgamma[35S] binding assay

[2] = biological target: T1, Cannabinoid receptor 1; assay: Binding affinity to CB1 receptor
[3] = biological target: Cannabinoid receptor 2 (Homo sapiens, UniProt P34972); assay: Binding affinity to CB2 receptor
[4] = system: Mus musculus; assay: Antiobesity activity in diet-induced obese mouse assessed as reduction in weight gain at 3 mg/kg, po for 7 days; type: functional; set-up: scale not given: the % may be the effect or the level left
[5] = system: Mus musculus; assay: Antiobesity activity in diet-induced obese mouse assessed as reduction in food intake at 3 mg/kg, po for 7 days; type: functional; set-up: scale not given: the % may be the effect or the level left
[6] = system: Rattus norvegicus; assay: Antiobesity activity in fast-induced refeeding Sprague-Dawley rat model assessed as reduction in food intake at 3 mg/kg, po administered 30 mins prior to food intake measured every 10 mins for 2 hrs; type: functional; set-up: scale not given: the % may be the effect or the level left
[7] = system: Rattus norvegicus; assay: Inhibition of CP-55940-induced analgesia in rat at >=1 mg/kg, sc administered 15 mins before CP-55940 challenge measured after 45 mins by hot plate method
[8] = Oral bioavailability in rat up to 50 mg/kg; type: ADME, organism-based; settings: in vivo
[9] = system: Mus musculus; assay: Antiobesity activity in diet-induced obese mouse assessed as reduction in food intake at 1 mg/kg, po for 7 days; type: functional; set-up: scale not given: the % may be the effect or the level left
[10] = system: Rattus norvegicus; assay: Inhibition of CP-55940-induced catalepsy in rat at >=1 mg/kg, sc administered 15 mins before CP-55940 challenge measured after 90 mins
[11] = Bioavailability in rat at 1 mg/kg, iv and 5 mg/kg, po; type: ADME, organism-based; settings: in vivo
[12] = system: Rattus norvegicus; assay: Inhibition of CP-55940-induced locomotor activity in rat at >=1 mg/kg, sc administered 15 mins before CP-55940 challenge measured after 25 mins
[13] = Volume of distribution at steady state in rat at 1 mg/kg, iv and 5 mg/kg, po; type: ADME, organism-based; settings: in vivo, read-out: Vdss
[14] = system: Rattus norvegicus; assay: Inhibition of CP-55940-induced hypothermia in rat at >=1 mg/kg, sc administered 15 mins before CP-55940 challenge measured after 65 mins
[15] = system: Mus musculus; assay: Antiobesity activity in diet-induced obese mouse assessed as reduction in weight gain at 1 mg/kg, po for 7 days; type: functional; set-up: scale not given: the % may be the effect or the level left
[16] = system: Rattus norvegicus; assay: Antiobesity activity in fast-induced refeeding Sprague-Dawley rat model assessed as reduction in food intake at 1 mg/kg, po administered 30 mins prior to food intake measured every 10 mins for 2 hrs; type: functional; set-up: scale not given: the % may be the effect or the level left
[17] = system: Mus musculus; assay: Inhibition of CP-55940-induced locomotor activity in ICR mouse at 1 mg/kg, sc administered 15 mins before CP-55940 challenge measured after 25 mins; type: functional, organism-based; set-up: dose 1 mg/kg
[18] = species on record: Rattus norvegicus; assay: Toxicity in Sprague-Dawley rat assessed as behavioral side effects and rapid respiration at concentration >=10 fold of plasma level; type: organism-based; settings: in vivo
[19] = system: Mus musculus; assay: Inhibition of CP-55940-induced catalepsy in ICR mouse at 1 mg/kg, sc administered 15 mins before CP-55940 challenge measured after 90 mins; type: functional, organism-based; set-up: dose 1 mg/kg
[20] = Half life in rat at 1 mg/kg, iv and 5 mg/kg, po; type: ADME, organism-based; settings: in vivo
[21] = system: Mus musculus; assay: Inhibition of CP-55940-induced hypothermia in ICR mouse at 1 mg/kg, sc administered 15 mins before CP-55940 challenge measured after 65 mins; type: functional, organism-based; set-up: dose 1 mg/kg
[22] = system: Rattus norvegicus; assay: Toxicity in po dosed rat after 4 days; type: organism-based; settings: in vivo, 96 h
[23] = species on record: Rattus norvegicus; assay: Anorectic activity in acute food intake rat model assessed as increase in fat oxidation; type: functional, organism-based
[24] = system: Mus musculus; assay: Inhibition of CP-55940-induced analgesia in ICR mouse at 1 mg/kg, sc administered 15 mins before CP-55940 challenge measured after 45 mins by hot plate method; type: functional, organism-based; set-up: dose 1 mg/kg
[25] = Aqueous solubility of the compound; type: physicochemical; settings: buffer
[26] = Oral bioavailability in rat at 500 mg/kg; type: ADME, organism-based; settings: in vivo
[27] = Solubility in sodium taurocholate/phosphatidyl choline salt medium; type: physicochemical
[28] = species on record: Rattus norvegicus; assay: Anorectic activity in acute food intake rat model assessed as increase in energy expenditure; type: functional, organism-based
[29] = species on record: Rattus norvegicus; assay: Anorectic activity in acute food intake rat model assessed as decrease in food intake; type: functional, organism-based

Sequence of Cannabinoid receptor 2 (P34972 whole entry): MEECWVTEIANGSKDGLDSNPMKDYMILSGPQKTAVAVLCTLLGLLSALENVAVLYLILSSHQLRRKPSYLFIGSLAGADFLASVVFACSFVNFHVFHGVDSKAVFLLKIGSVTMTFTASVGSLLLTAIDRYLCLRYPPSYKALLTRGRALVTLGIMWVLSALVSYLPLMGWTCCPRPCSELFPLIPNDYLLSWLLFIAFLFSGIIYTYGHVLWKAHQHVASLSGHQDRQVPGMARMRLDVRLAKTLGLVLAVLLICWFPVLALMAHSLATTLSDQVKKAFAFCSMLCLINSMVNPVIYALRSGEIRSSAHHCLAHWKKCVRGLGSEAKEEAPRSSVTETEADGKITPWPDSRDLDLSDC
T1 sequence (P21554 whole entry): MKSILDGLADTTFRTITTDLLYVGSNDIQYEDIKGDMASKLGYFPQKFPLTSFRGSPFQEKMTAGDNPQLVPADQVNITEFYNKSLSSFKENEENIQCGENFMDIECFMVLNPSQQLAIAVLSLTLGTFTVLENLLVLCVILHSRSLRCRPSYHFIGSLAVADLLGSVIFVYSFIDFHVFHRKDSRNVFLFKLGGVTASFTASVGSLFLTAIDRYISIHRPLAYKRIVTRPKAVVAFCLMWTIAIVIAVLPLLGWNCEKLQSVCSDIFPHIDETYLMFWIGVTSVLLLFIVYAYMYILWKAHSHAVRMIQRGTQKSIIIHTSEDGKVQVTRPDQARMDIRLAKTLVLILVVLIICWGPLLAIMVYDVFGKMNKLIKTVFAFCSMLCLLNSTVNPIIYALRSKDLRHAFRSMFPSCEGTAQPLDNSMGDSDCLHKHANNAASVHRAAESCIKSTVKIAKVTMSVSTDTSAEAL

CC(C)CN1CCc2c(nn(-c3ccccc3Cl)c2-c2ccc(Cl)cc2)C1=O
Ki [1]: 9.8 nM | Ki [2]: 2.5 nM | Ki [3]: 1780 nM

Cc1c(C(=O)NN2CCCCC2)nn(-c2ccc(Cl)cc2Cl)c1-c1ccc(Cl)cc1 [RIMONABANT]
Activity [4]: 5.2% | Activity [5]: 21% | Activity [6]: 43%

CCC(F)(F)CN1CCOc2c(nn(-c3ccccc3Cl)c2-c2ccc(Cl)cc2)C1=O
Ki [1]: 0.7 nM | Ki [2]: 1.4 nM | Ki [3]: > 10000 nM

CC(C)N1CCOc2c(nn(-c3ccccc3Cl)c2-c2ccc(Cl)cc2)C1=O
Ki [1]: 4.8 nM | Ki [2]: 1.3 nM | Ki [3]: > 10000 nM

O=C1c2nn(-c3ccccc3Cl)c(-c3ccc(Cl)cc3)c2CCN1C1CCCC1
Ki [2]: 24 nM

O=C1c2nn(-c3ccccc3Cl)c(-c3ccc(Cl)cc3)c2CCN1CC(F)(F)F
Ki [1]: 3.1 nM | Ki [2]: 1.7 nM | Ki [3]: > 10000 nM

CC(C)(C)N1CCc2c(nn(-c3ccccc3Cl)c2-c2ccc(Cl)cc2)C1=O
Ki [1]: 11 nM | Ki [2]: 4.7 nM | Ki [3]: 6810 nM

COC(C)(C)CN1CCc2c(nn(-c3ccccc3Cl)c2-c2ccc(Cl)cc2)C1=O
Ki [3]: 162 nM

O=C1c2nn(-c3ccccc3Cl)c(-c3ccc(Cl)cc3)c2OCCN1CC(F)(F)F
Ki [1]: 1.5 nM | Ki [2]: 1.9 nM | Ki [3]: > 10000 nM

CC(F)(F)CN1CCOc2c(nn(-c3ccccc3Cl)c2-c2ccc(Cl)cc2)C1=O
Activity [7]: Active | bioavailability [8]: 51% | Activity [9]: 23% | Activity [10]: Active | bioavailability [11]: 42% | Activity [12]: Active | Vd [13]: 2.6 L/kg | Activity [14]: Active | Activity [15]: 5.9% | Activity [16]: 40%

CC(F)(F)CN1CCc2c(nn(-c3ccccc3Cl)c2-c2ccc(Cl)cc2)C1=O
Activity [17]: Active | Activity [18]: Non-toxic | Activity [19]: Active | half-life [20]: 3.6 h | Activity [21]: Active | bioavailability [11]: 99% | Activity [22]: Non-toxic | Activity [23]: Active | Activity [24]: Active | Vd [13]: 2.6 L/kg | solubility [25]: 0.2 ugA/ml | Ki [3]: > 10000 nM | bioavailability [26]: 50% | solubility [27]: 18.5 ugA/ml | Activity [28]: Active | Activity [29]: Dose-dependent effect

CC(C)N1CCc2c(nn(-c3ccccc3Cl)c2-c2ccc(Cl)cc2)C1=O
Ki [1]: 5.5 nM | Ki [2]: 2.5 nM | Ki [3]: > 10000 nM

Cc1nc2c(-c3ccc(Cl)cc3)n(-c3ccccc3Cl)nc2c(=O)n1CC(F)(F)F
Activity [18]: Toxic | Ki [3]: > 10000 nM

CC(F)(F)CN1CCc2c(nn(-c3ccccc3Cl)c2-c2ccc(Cl)cc2)C1
Ki [2]: 30 nM

CCN1CCc2c(nn(-c3ccccc3Cl)c2-c2ccc(Cl)cc2)C1=O
Ki [1]: 25 nM | Ki [2]: 4.7 nM | Ki [3]: 23400 nM
